As usually defined, the IC50 is the concentration needed to halve the response being measured. A high value points to lower potency.

We go through 10 molecules from patent US20180177890A1, “LIGAND-CYTOTOXIC DRUG CONJUGATE, PREPARATION METHOD THEREOF, AND USE THEREOF” (priority 2015, published 2018).

One test has as its system HepG2 tumor cells. Kind of test: In vitro tumor cell proliferation inhibition test (CCK-8), HepG2. Conditions: Homo sapiens, HepG2, 76 hours incubation. Format: cell-based. The method, then: (§1) The objective of this experiment is to test the in vitro inhibition effect of the formula (D) according to the present invention on the proliferation of HepG2 tumor cells (human hepatocellular carcinoma cells, Chinese Academy of Sciences cell bank, No. #TCHu 72) and A549 tumor cells (human lung adenocarcinoma, Chinese Academy of Sciences cell bank, No. #TCHu150). The cells were treated with different concentrations of the compound in vitro. After 76 hours incubation, the cell proliferation was detected by CCK-8 reagent (Cell Counting Kit-8, Dojindo, No. CK04), and the activity of the compound in vitro was evaluated according to the IC50 value.
(§2) The following is an example of a method for in vitro proliferation inhibition test of HepG2 cells for the purpose of exemplifying the test of the compounds according to the present invention for the proliferation inhibitory activity on tumor cells in vitro. This method is also applicable to, but not limited to, the in vitro proliferation inhibition tests on other tumor cells.
HepG2 cells in logarithmic growth phase were washed with PBS (phosphate buffer, ThermoFisher) once, and added with 2-3 ml trypsin (0.25% trypsin-EDTA (1×), Gibico, Life Technologies) to digest for 2-3 min. Then, 10-15 ml of cell culture medium (DMEM/F12 medium, Invitrogen; 10% (v/v)) was added after the cells were completely digested. The digested HepG2 cells were eluted, and centrifuged at 1000 rpm for 3 min. The supernatant was discarded, and then 10-20 ml of cell culture medium were added to resuspend the cells to prepare a single cell suspension.
The HepG2 single cell suspension was mixed and the cell density was adjusted to 6×10^4 cells/ml with cell culture medium. The density-adjusted cell suspension was mixed uniformly and added to a 96-well cell culture plate at 100 μl/well. The plates were incubated in a 5% CO2 incubator at 37° C. for 18-20 hours.
(§3) The compound was dissolved with DMSO (dimethylsulfoxide, Shanghai Titan Technology Co., Ltd.) to prepare a storage solution having an initial concentration of 10 mM.
(§4) 10 μl of 10 mM compound was added to the wells of the first column of a U-shaped bottom 96-well plate (sample plate 1), and 90 μl of DMSO was added to each compound sample well of the first column, i.e., the stock solution was diluted 10 times as the starting point. Then, 3-fold gradient dilutions were performed, with each compound concentration […]. The diluent was DMSO solution. 60 μl of 100% DMSO was added to 12th column and 20 μl of 1 mM positive drug control was added to 11th column.
(§5) In a new U-shaped bottom 96-well plate (sample plate 2), each sample from the sample plate 1 was diluted 20 times with the complete medium. Then, in another new U-shaped bottom 96-well plate (sample plate 3), each well sample from the sample plate 2 was subjected to a final 10-fold dilution.
(§6) After the cell pre-culture was completed, the 96-well cell culture plate was removed and the supernatant was discarded. Each sample dilution in the 96-well sample plate 3 was successively added to a 96-well cell culture plate at 100 μl/well. Each compound sample was tested in duplicate at each concentration. […] After completion of the loading operation, the 96-well cell culture plate was incubated at 37° C. for about 76 hours in a 5% CO2 incubator.
(§7) The 96-well cell culture plate was taken and CCK-8 was added to each well at […]. The cell culture plate was gently pat and mixed for more than 10 times and incubated at 37° C. for 2 hours in a 5% CO2 incubator.
(§8) The 96-well cell culture plate was taken and placed in a microplate reader (PerkinElmer, VICTOR 3) and the absorbance at 450 nm was measured using the microplate reader.
(§9) Data was analyzed with Microsoft Excel and Graphpad Prism 5.

A further test concerns A549 tumor cells. Put plainly: In vitro tumor cell proliferation inhibition test (CCK-8), A549. Format: cell-based. Conditions: Homo sapiens, A549, 76 hours incubation. The method, then:
as §1, §2, §3, §4, §5, §6, §7, §8
In accordance with the above procedure, the inhibition activity of the compound according to the present invention on the proliferation of A549 tumor cells in vitro was tested. The cell culture medium was also DMEM/F12.
as §9

SMILES strings stand for the structures. Numbered stars: 1 amine (or outer) side, 2 acyl side, 3 side chain; on linkers, the order of the positions; unused ones are H or OH. Square brackets hold non-standard residues; d marks the D form. Peptide text beside a SMILES is read from it. X1 = CO[C@H]([C@@H](C)C(=O)[*:2])[C@@H]1C[C@@H]2C[C@@H]2N1[*:1]; X3 = CO[C@H]([C@@H](C)C(=O)[*:2])[C@@H]1CC[C@H](C)N1[*:1]; X5 = CO[C@H]([C@@H](C)C(=O)[*:2])[C@@H]1C[C@H](F)CN1[*:1]; X2 = CO[C@H]([C@@H](C)C(=O)[*:2])[C@@H]1CC2(CC2)CN1[*:1]; X4 = C=C1C[C@@H]([C@H](OC)[C@@H](C)C(=O)[*:2])N([*:1])C1; Dolaproine = CO[C@@H]([C@@H]1CCCN1)[C@@H](C)C(=O)O; Dil = CC[C@H](C)[C@H](NC)[C@@H](CC(=O)O)OC; Phe(2-Cl) = N[C@@H](Cc1ccccc1Cl)C(=O)O; Phe(4-F) = N[C@@H](Cc1ccc(F)cc1)C(=O)O; Phe(4-Me) = Cc1ccc(C[C@H](N)C(=O)O)cc1; Phe(2-F) = N[C@@H](Cc1ccccc1F)C(=O)O; NMeV = CN[C@H](C(=O)O)C(C)C

Take `CC[C@H](C)[C@@H]([C@@H](CC(=O)N1[C@H]2C[C@H]2C[C@H]1[C@H](OC)[C@@H](C)C(=O)N[C@@H](Cc1ccccc1)C(=O)O)OC)N(C)C(=O)[C@@H](NC(=O)[C@@H](NC)C(C)C)C(C)C` [Compound 1, (S)-2-((2R,3R)-3-((1S,3S,5S)-2-((3R,4S,5S)-4-((S)—N,3-dimethyl-2-((S)-3-methyl-2-(methylamino)butanamido)butanamido)-3-methoxy-5-methylheptanoyl)-2-azabicyclo[3.1.0]hexan-3-yl)-3-methoxy-2-methylpropanamido)-3-phenylpropanoic acid] (H-[NMeV]V[Dil][X1]F-OH): the IC50 with HepG2 tumor cells is 8.6 nM; in the test with A549 tumor cells it was 12.8 nM.

On to `CC[C@H](C)[C@@H]([C@@H](CC(=O)N1[C@H]2C[C@H]2C[C@H]1[C@H](OC)[C@@H](C)C(=O)N[C@@H](Cc1ccccc1Cl)C(=O)O)OC)N(C)C(=O)[C@@H](NC(=O)[C@@H](NC)C(C)C)C(C)C` [Compound 2, (S)-3-(2-chlorophenyl)-2-((2R,3R)-3-((1S,3S,5S)-2-((3R,4S,5S)-4-((S)—N,3-dimethyl-2-((S)-3-methyl-2-(methylamino)butanamido)butanamido)-3-methoxy-5-methylheptanoyl)-2-azabicyclo[3.1.0]hexan-3-yl)-3-methoxy-2-methylpropanamido)propanoic acid] (H-[NMeV]V[Dil][X1][Phe(2-Cl)]-OH), for which the 50% inhibitory concentration (IC50) with HepG2 tumor cells amounted to 4.12 nM; in the test on A549 tumor cells, 2.33 nM.

For the molecule `CC[C@H](C)[C@@H]([C@@H](CC(=O)N1[C@@H](C)CC[C@H]1[C@H](OC)[C@@H](C)C(=O)N[C@@H](Cc1ccccc1)C(=O)O)OC)N(C)C(=O)[C@@H](NC(=O)[C@@H](NC)C(C)C)C(C)C` [Compound 3, (S)-2-((2R,3R)-3-((2S,5S)-1-((3R,4S,5S)-4-((S)—N,3-dimethyl-2-((S)-3-methyl-2-(methylamino)butanamido)butanamido)-3-methoxy-5-methylheptanoyl)-5-methylpyrrolidin-2-yl)-3-methoxy-2-methylpropanamido)-3-phenylpropanoic acid] (H-[NMeV]V[Dil][X3]F-OH), the IC50 with HepG2 tumor cells turned out to be 9.33 nM; with A549 tumor cells, 16.2 nM.

In the case of `CC[C@H](C)[C@@H]([C@@H](CC(=O)N1[C@H]2C[C@H]2C[C@H]1[C@H](OC)[C@@H](C)C(=O)N[C@@H](Cc1ccccc1F)C(=O)O)OC)N(C)C(=O)[C@@H](NC(=O)[C@@H](NC)C(C)C)C(C)C` [Compound 7, (S)-2-((2R,3R)-3-((1S,3S,5S)-2-((3R,4S,5S)-4-((S)—N,3-dimethyl-2-((S)-3-methyl-2-(methylamino)butanamido)butanamido)-3-methoxy-5-methylheptanoyl)-2-azabicyclo[3.1.0]hexan-3-yl)-3-methoxy-2-methylpropanamido)-3-(2-fluorophenyl)propanoic acid] (H-[NMeV]V[Dil][X1][Phe(2-F)]-OH), the figures for the IC50 with HepG2 tumor cells and with A549 tumor cells were 283 nM and 776 nM, respectively.

Regarding `C=C1C[C@@H]([C@H](OC)[C@@H](C)C(=O)N[C@@H](Cc2ccccc2)C(=O)O)N(C(=O)C[C@@H](OC)[C@H]([C@@H](C)CC)N(C)C(=O)[C@@H](NC(=O)[C@@H](NC)C(C)C)C(C)C)C1` [Compound 9, (S)-2-((2R,3R)-3-((S)-1-((3R,4S,5S)-4-((S)—N,3-dimethyl-2-((S)-3-methyl-2-(methylamino)butanamido)butanamido)-3-methoxy-5-methylheptanoyl)-4-methylenepyrrolidin-2-yl)-3-methoxy-2-methylpropanamido)-3-phenylpropanoic acid] (H-[NMeV]V[Dil][X4]F-OH), the results for the IC50 in the test on HepG2 tumor cells and with A549 tumor cells were 55 nM and 114 nM, respectively.

In the case of `CC[C@H](C)[C@@H]([C@@H](CC(=O)N1CC2(CC2)C[C@H]1[C@H](OC)[C@@H](C)C(=O)N[C@@H](Cc1ccccc1F)C(=O)O)OC)N(C)C(=O)[C@@H](NC(=O)[C@@H](NC)C(C)C)C(C)C` [Compound 11, (S)-2-((2R,3R)-3-((S)-5-((3R,4S,5S)-4-((S)—N,3-dimethyl-2-((S)-3-methyl-2-(methylamino)butanamido)butanamido)-3-methoxy-5-methylheptanoyl)-5-azaspiro[2.4]heptan-6-yl)-3-methoxy-2-methylpropanamido)-3-(2-fluorophenyl)propanoic acid] (H-[NMeV]V[Dil][X2][Phe(2-F)]-OH), the IC50 was determined as 6.6 nM in the test on HepG2 tumor cells and 27.2 nM in the test on A549 tumor cells.

For the molecule `CC[C@H](C)[C@@H]([C@@H](CC(=O)N1CC2(CC2)C[C@H]1[C@H](OC)[C@@H](C)C(=O)N[C@@H](Cc1ccccc1)C(=O)O)OC)N(C)C(=O)[C@@H](NC(=O)[C@@H](NC)C(C)C)C(C)C` [Compound 13, (S)-2-((2R,3R)-3-((S)-5-((3R,4S,5S)-4-((S)—N,3-dimethyl-2-((S)-3-methyl-2-(methylamino)butanamido)butanamido)-3-methoxy-5-methylheptanoyl)-5-azaspiro[2.4]heptan-6-yl)-3-methoxy-2-methylpropanamido)-3-phenylpropanoic acid] (H-[NMeV]V[Dil][X2]F-OH), the IC50 in the test on HepG2 tumor cells was 11.7 nM; in the test with A549 tumor cells, 30.2 nM.

With `CC[C@H](C)[C@@H]([C@@H](CC(=O)N1[C@H]2C[C@H]2C[C@H]1[C@H](OC)[C@@H](C)C(=O)N[C@@H](Cc1ccc(C)cc1)C(=O)O)OC)N(C)C(=O)[C@@H](NC(=O)[C@@H](NC)C(C)C)C(C)C` [Compound 15, (S)-2-((2R,3R)-3-((1S,3S,5S)-2-((3R,4S,5S)-4-((S)—N,3-dimethyl-2-((S)-3-methyl-2-(methylamino)butanamido)butanamido)-3-methoxy-5-methylheptanoyl)-2-azabicyclo[3.1.0]hexan-3-yl)-3-methoxy-2-methylpropanamido)-3-(p-tolyl)propanoic acid] (H-[NMeV]V[Dil][X1][Phe(4-Me)]-OH), the figures for the IC50 with HepG2 tumor cells and in the test with A549 tumor cells were 47.5 nM and 75.5 nM, respectively.

For the molecule `CC[C@H](C)[C@@H]([C@@H](CC(=O)N1C[C@@H](F)C[C@H]1[C@H](OC)[C@@H](C)C(=O)N[C@@H](Cc1ccccc1)C(=O)O)OC)N(C)C(=O)[C@@H](NC(=O)[C@@H](NC)C(C)C)C(C)C` [Compound 44, (S)-2-((2R,3R)-3-((2S,4S)-1-((3R,4S,5S)-4-((S)—N,3-dimethyl-2-((S)-3-methyl-2-(methylamino)butanamido)butanamido)-3-methoxy-5-methylheptanoyl)-4-fluoropyrrolidin-2-yl)-3-methoxy-2-methylpropanamido)-3-phenylpropanoic acid] (H-[NMeV]V[Dil][X5]F-OH), 179 nM corresponded to half-maximal inhibition with A549 tumor cells (IC50).

Take `CC[C@H](C)[C@@H]([C@@H](CC(=O)N1CCC[C@H]1[C@H](OC)[C@@H](C)C(=O)N[C@@H](Cc1ccc(F)cc1)C(=O)O)OC)N(C)C(=O)[C@@H](NC(=O)[C@@H](NC)C(C)C)C(C)C` [Compound 46, (S)-2-((2R,3R)-3-((S)-1-((3R,4S,5S)-4-((S)—N,3-dimethyl-2-((S)-3-methyl-2-(methylamino)butanamido)butanamido)-3-methoxy-5-methylheptanoyl)pyrrolidin-2-yl)-3-methoxy-2-methylpropanamido)-3-(4-fluorophenyl)propanoic acid] (H-[NMeV]V[Dil][Dolaproine][Phe(4-F)]-OH): the IC50 with A549 tumor cells is 106 nM.
